The values that follow come from PMC10781691, “Vertical pathway inhibition of receptor tyrosine kinases and BAD with synergistic efficacy in triple negative breast cancer” (NPJ Precision Oncology, 2024).

One may read the AUC(0-inf) as the area under the concentration-time curve extrapolated to infinity. The term AUC(0-t) denotes exposure summed from dosing to a finite time, without extrapolation to infinity. One may read the half-life as the time needed for the level to fall by half in the phase considered. A word on the bioavailability: it is the share of a dose that reaches the circulation, judged against a reference dose that is usually intravenous. As a reminder, the Cmax is the peak of the concentration-time curve. As usually defined, the Tmax is the time from dosing to the highest level.

Like-named read-outs stand apart in the source and are kept apart here.

For one data set, the system named is VEGFR2. The conditions noted are these: read-out: potency on VEGFR2; cited from earlier work.
For data set [1] the following is noted: Phase I, cited from earlier work.
In a further data set the test system is USTC-0 PDX. The experiment in a line: TNBC patient-derived xenograft. As to conditions: for survival of PDX-bearing mice / Median survival: USTC-0; for survival of PDX-bearing mice: single agents vs vehicle, combinations vs OSI-930 or Crizotinib alone; for Median survival: vehicle 25.5. It is filed as in vivo, NOD/SCID mice. The method, then: (§1) The effect of drug treatments on two patient-derived xenograft (PDX) models of TNBC, USTC-0 and USTC-1 were next examined. The use of the USTC-1 PDX was previously reported.
(§2) In vivo bioluminescent imaging was performed to determine the incidence and metastatic burden of luciferase-labeled 4T1 cells. Mice were injected i.p. with 10 mg/ml of D-luciferin (Gold Biotechnology, MO, USA) and imaged using a PerkinElmer IVIS Spectrum system. PDX were generated as previously described by transplanting fresh fragments orthotopically into 8-week-old female nonobese diabetic (NOD)/severe combined immunodeficient (SCID) mice (Beijing Vital River Laboratory Animal Technology Co., Beijing, China) (P1, passage 1)[40]. The P1 xenografts were then fragmented, digested into single-cell suspension and implanted into mammary fat pad (100 μL PBS containing growth factor reduced 50% Matrigel) of NOD/SCID mice. Once orthotopic xenografts reached an approximate size of 100 mm^3, the mice were randomly divided into three groups (n = 8) for single drug studies and six groups (n = 6) for combination studies and Kaplan-Meier (KM) analyses. […] Animal body weight and xenograft size were measured daily using an electronic balance and a digital caliper, respectively. Xenograft volume (mm^3) was calculated by using the formula: 0.52 × length × [width]^2. Complete response (CR) was achieved if the average xenograft volume for the treatment group was unable to be determined for two or more consecutive measurements. Partial response (PR) was achieved if the average xenograft volume reduced to <50 mm^3 for two or more consecutive measurements. After 3-week drug treatment, all mice were sacrificed by CO2 inhalation. Tumor and vital organs were weighed and isolated for further analysis. IHC analysis of xenograft histology sections and quantitative polymerase chain reaction (qPCR) were performed as previously described. […] For PDX, xenograft growth was monitored daily by measurement of the xenograft volume until mice humane endpoint ( ~ 1000 mm^3).
On the technique in general: Xenograft models place foreign cells or tissue in a host animal.

In a further data set the test system is USTC-1 PDX. Description: TNBC patient-derived xenograft. The conditions noted are these: for Median survival: USTC-1, vehicle 22.5. The format is in vivo, NOD/SCID mice. As to the method:
as §1, §2

The test system of another data set is c-Kit. As to conditions: read-out: potency on Kit; cited from earlier work.
The test system of data set [2] is MDA-MB-231 cells. The experiment in a line: Cambridge cancer compound library screen in combination with NCK. The format is cell-based, human. The conditions noted are these: compound at IC25 with NCK 0.1, 1, 10 μM, 72 h, AlamarBlue.
Method: Cancer compound library screening was performed using IC25 values of anti-cancer compounds (predicted with Genomics of Drug Sensitivity in Cancer (https://www.cancerrxgene.org/) and NCK at 3-point dilutions (0.1, 1, 10 μM) in medium containing 2% FBS to identify potential synergistic combinations. In detail, MDA-MB-231 cells (5 ×10^3) were seeded in 96-well plates in 80 μl of culture medium (2% FBS) and allowed to settle overnight. 24-hour post-seeding, 10 μl of compounds dissolved in culture medium were prepared and added to the plates to reach a final concentration of IC25 of the respective compound. 10 μl of NCK was also added into cell plates to yield a final concentration of 0.1, 1 or 10 μM. After 72-hours of treatment, cell viability was determined with AlamarBlue reagent and fluorescence was measured using a Tecan microplate reader, as previously described[29].
The test system of data set [3] is MDA-MB-231 cells. The experiment in a line: Cell cycle analysis by PI flow cytometry. It is filed as cell-based, human. The conditions noted are these: MDA-MB-231, 5 μM. The text has this: Fig. 3 NCK enhances apoptosis and impedes cell-cycle progression in TNBC cells. a Hallmark analysis of the differential expressed genes (DEGs). […] NES, normalized enrichment score. FDR, false discovery rate.
Supplementary Figure 9: (A) Representative flow cytometry plots using PI staining for DNA
or NPB using flow cytometry analysis.

A further data set concerns BT549 cells. The experiment in a line: AlamarBlue cell viability, 3D Matrigel culture. The format is cell-based, human. (In general: Alamar Blue is a resazurin reagent that responds to reducing activity.)
A further data set relates to MDA-MB-231 xenografts. The experiment in a line: Orthotopic xenograft, single drug study. It is filed as in vivo, BALB/c-nude mice. The method, then:
Next, the in vivo efficacy of NCK was examined in mice injected orthotopically with MDA-MB-231 cells to form xenografts. When the xenograft volume reached 100 mm^3, mice were randomly grouped and injected i.p. with vehicle, NCK (5 mg/kg q.d.) or NCK (20 mg/kg q.d.) for 21 days.

Data set [4] concerns BAD phosphorylation at Ser75 and Ser118. Description: Western blot of BAD phosphorylation at Ser75 and Ser118 in TNBC cells. It is filed as cell-based, human. The conditions noted are these: MDA-MB-231 and BT549 cells. As to the method:
To compare the binding affinity of NCK and NPB towards BAD, we performed surface plasmon resonance (SPR) measurement by immobilizing BAD protein on a sensor chip with NCK or NPB as analyte. Representative reference-subtracted overlaid sensorgrams and the kinetic parameters are specified in Fig. 2d and Supplementary Fig. 6A. […] Additionally, the pharmacological inhibition of BAD phosphorylation by NCK or NPB in TNBC cells was evaluated. […] Furthermore, the comparative potencies of NPB and NCK were evaluated in eight TNBC cell lines using total cell number assay in 2D culture and cell viability in 3D culture (Supplementary Fig. 6C, D).
(In general: Immunoblotting shows a protein as a band on a membrane.)

A short description of data set [5]: Pharmacokinetics after IV and oral administration. It is filed as in vivo, Sprague-Dawley (SD) rats. The conditions noted are these: SD rats; for MRT inf: read-out: MRTInf_obs. Set-up: AUClast/D: unit not given here. The method, then:
The pharmacokinetics of NCK were determined via intravenous (IV) and oral administration in Sprague-Dawley (SD) rats (Supplementary Fig. 7).
Supplementary Figure 7: (A) Plasma concentration of NCK after intravenous (IV, 1 mg/kg) (red) or oral (PO, 10 mg/kg) (blue) administration in SD rats. Results represent the mean ± SD of three animals. (B) Pharmacokinetic parameters of NCK in plasma after IV injection (1 mg/kg) or oral administration (10 mg/kg). AUCinf: Area Under the Plasma Concentration-Time Curve from t=0 to infinity; AUClast: Area Under the Plasma Concentration-Time Curve from t=0 to last measurable positive concentration; AUC_%Extrap_obs: Percent Extrapolated AUC from tlast to infinity; C0: Initial concentration in plasma; Cmax: Peak concentration in plasma; Cl_obs:
Plasma systemic clearance; F: Absolute oral bioavailability; MRTInf_obs: Mean residence time from t=0 to infinity ;T1/2: Elimination half- life; Tmax: Time of peak concentration in plasma; Vss_obs: Volume of Distribution at Steady- state

Where [6] appears, read: NCK 5 and 20 mg/kg q.d. i.p. 21 days.
The mark [7] stands for this setting: Sprague-Dawley, rat, plasma, IV 1 mg/kg.
Setting [8] is: Sprague-Dawley, rat, plasma, PO 10 mg/kg.

For the compound `O=C(Nc1ccc(OC(F)(F)F)cc1)c1sccc1NCc1ccnc2ccccc12` [OSI-930], the IC50 in the data set with VEGFR2 was 9 nM; in the data set with c-Kit, 80 nM. Further, in data set [1] (ref NCT00513851), the “MTD, BID” value was 500 mg. In addition, the “MTD, QD” value in data set [1] (ref NCT00513851) is given as 1600 mg. The “MTD of OSI-930 BID with 150 mg erlotinib QD” value in data set [1] (ref NCT00603356) is listed as 200 mg. Besides, the PDX xenograft volume result with USTC-0 PDX (USTC-0, 21 days treatment) was “significantly reduced the xenograft volume”; in the data set with USTC-1 PDX (USTC-1, 21 days treatment) it was “significantly reduced the xenograft volume”. For the same compound, the “survival of PDX-bearing mice” value in the data set on USTC-0 PDX is reported as “markedly extended the survival”. Also, the Median survival in the data set with USTC-0 PDX stood at 34.0 days; with USTC-1 PDX it was 29.5 days. Moreover, in the data set on MDA-MB-231 cells [2], the “synergy with NCK in compound library screen (CI, Bliss independence)” value is recorded as “low CI (high synergy)”.
On to `Oc1ccccc1C(c1cccnc1)N1CCN(c2cccc(Cl)c2Cl)CC1` (stereo not drawn) [NCK, 2-((4-(2,3-dichlorophenyl)piperazin-1-yl)(pyridin-3-yl)methyl) phenol], for which, in the data set with USTC-0 PDX (USTC-0, 21 days treatment), the PDX xenograft volume entry is “significantly reduced the xenograft volume” and the “reduction in xenograft burden vs vehicle” value is 66.0%. For the same compound, in the data set with USTC-0 PDX, the “survival of PDX-bearing mice” value was “markedly extended the survival” and the Median survival turned out to be 42.0 days. In addition, in the data set with USTC-1 PDX (USTC-1, 21 days treatment), the PDX xenograft volume result is given as “significantly reduced the xenograft volume” and the “reduction in xenograft burden vs vehicle” value stood at 45.6%. In the data set with USTC-1 PDX, the Median survival was determined as 34.5 days. In addition, in the data set with MDA-MB-231 cells [3], the “decrease in S-phase” value turned out to be 15.68% and the “increase in G1-phase” value amounted to 17.75%. Besides, the “growth in 3D Matrigel” value with BT549 cells (BT549, 5 μM each) is reported as “reduced cell growth in 3D Matrigel”. Besides, the “fold IC50 difference NCK vs NPB” value with BT549 cells (BT549, 3D Matrigel) is ~ 8 fold. The IC50 in the data set on BT549 cells (Homo sapiens, BT-549, BT549, 3D Matrigel, AlamarBlue) turned out to be 309 nM. In addition, in the data set on MDA-MB-231 xenografts (NCK 5 mg/kg q.d. i.p. 21 days), the “xenograft volume and weight vs vehicle” value was “significantly reduced xenograft volume”. In the data set on MDA-MB-231 xenografts (NCK 20 mg/kg q.d. i.p. 21 days), the “xenograft volume and weight vs vehicle” value is listed as “significantly reduced xenograft volume”. Also, in the data set with MDA-MB-231 xenografts (setting [6]), the “MKI67 positivity in xenografts” value is listed as “decreased MKI67 positivity”, the “TUNEL scores in xenografts” value is “increased TUNEL scores”, the “body weight vs vehicle” value is “no significant change in body weight” and the “pBADSer99 in resected xenografts (IHC) vs vehicle” value is recorded as “significantly reduced pBADSer99”. Moreover, the “levels of pBADSer75/BAD and pBADSer118/BAD” value in data set [4] is “did not alter”. In [5] (IV 1 mg/kg), the AUC_%Extrap_obs was determined as 2.51%, the AUClast/D worked out at 280 and the Vss_obs was found to be 5.93 L/kg. Further, in data set [5] (PO 10 mg/kg), the AUC_%Extrap_obs was found to be 2.14% and the AUClast/D is recorded as 105. Further, in data set [5] (setting [7]), the AUC(0-inf) was 288 ng·h/mL, the AUC(0-t) stood at 280 ng·h/mL, the C0 came to 554 ng/mL and the half-life is 3.35 h. In data set [5] (setting [7]), the MRT inf turned out to be 1.72 h. The bioavailability in data set [5] (Sprague-Dawley, rat, plasma, PO 10 mg/kg vs IV 1 mg/kg, read-out: F (absolute oral bioavailability)) stood at 37.2%. In [5] (setting [8]), the AUC(0-inf) stood at 1070 ng·h/mL, the AUC(0-t) is 1050 ng·h/mL, the concentration peaked (Cmax) at 346 ng/mL and the Tmax was found to be 0.33 h. In data set [5] (setting [8]), the half-life is 2.68 h and the MRT inf amounted to 4 h. Further, the clearance in [5] (Sprague-Dawley, rat, IV 1 mg/kg, plasma, read-out: Cl_obs (clearance)) stood at 58.3 mL/min/kg.
